“And” between values parts separate entries of the source, which are not always exact repeats. Equal values may be shown once. Toxic doses and inconclusive results are not listed.

The assay concerns P388 leukemia ip, CD2F1 mice, survival T/C. Put plainly: NCI In Vivo Anticancer Drug Screen. Data for tumor model P388 Leukemia (intraperitoneal) in CD2F1 (CDF1) mice. The conditions noted are these: endpoint: median survival time, higher = longer survival. The procedure, abridged: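 Mice carrying the transplanted tumor received test compound or vehicle. Survival was recorded in each group, and the value is the treated-group measurement divided by that of the vehicle-treated control group.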

Where [1] appears, read: dose: 50.0 mg/kg/injection, schedule: Q01DX009 (ip), vehicle: saline with Tween-80.
Where [2] appears, read: dose: 100.0 mg/kg/injection, schedule: Q01DX009 (ip), vehicle: saline with Tween-80.
Setting [3] is: dose: 200.0 mg/kg/injection, schedule: Q01DX009 (ip), vehicle: saline with Tween-80.
The mark [4] stands for this setting: dose: 25.0 mg/kg/injection, schedule: Q01DX009 (ip), vehicle: saline with Tween-80.
Where [5] appears, read: dose: 25.0 mg/kg/injection, schedule: Q01DX009 (ip), vehicle: saline.
Where [6] appears, read: dose: 50.0 mg/kg/injection, schedule: Q01DX009 (ip), vehicle: saline.
Setting [7] is: dose: 50.0 mg/kg/injection, schedule: Q01DX005 (ip), vehicle: saline with Tween-80.
The mark [8] stands for this setting: dose: 100.0 mg/kg/injection, schedule: Q01DX005 (ip), vehicle: saline with Tween-80.
[9] abbreviates: dose: 200.0 mg/kg/injection, schedule: Q01DX005 (ip), vehicle: saline with Tween-80.
The mark [10] stands for this setting: dose: 100.0 mg/kg/injection, schedule: Q04DX002 (ip), vehicle: saline with Tween-80.

Consider `c1ccc(C23OOC(c4ccccc4)(c4ccccc42)c2ccccc23)cc1`, for which the T/C was 96 % of control (dose: 5.0 mg/kg/injection, schedule: Q01DX001 (ip), vehicle: Klucel (hydroxypropylcellulose) (HPC)); 96 % of control (dose: 10.0 mg/kg/injection, schedule: Q01DX001 (ip), vehicle: Klucel (hydroxypropylcellulose) (HPC)); 89 % of control (dose: 20.0 mg/kg/injection, schedule: Q01DX001 (ip), vehicle: Klucel (hydroxypropylcellulose) (HPC)).

In the case of `CC(=O)NN=C(c1ccccc1)c1ccccc1`, the T/C reads like this: under setting [1], 100 % of control; under setting [2], 100 % of control; under setting [3], 100 % of control.

For the compound `CCSSC(=Nc1ccccc1)OCC(C)C`, the T/C was 107 % of control (dose: 50.0 mg/kg/injection, schedule: Q01DX009 (ip), vehicle: saline + Tween-80 + alcohol); 106 % of control (dose: 100.0 mg/kg/injection, schedule: Q01DX009 (ip), vehicle: saline + Tween-80 + alcohol); 123 % of control (dose: 200.0 mg/kg/injection, schedule: Q01DX009 (ip), vehicle: saline + Tween-80 + alcohol).

Consider `COc1cc(/C=N/N2CN(C(C)C(=O)O)B(Nc3ncccn3)N=C2N)cc(OC)c1` (stereo not given), for which the T/C runs as follows: (dose: 60.0 mg/kg/injection, schedule: Q01DX005 (ip), vehicle: saline) 103 % of control; (dose: 120.0 mg/kg/injection, schedule: Q01DX005 (ip), vehicle: saline) 111 % of control; (dose: 240.0 mg/kg/injection, schedule: Q01DX005 (ip), vehicle: saline) 112 % of control.

`CC(/C=C/c1ccccc1)=N\NC(=S)Nc1ccc(Br)cc1`: the T/C (dose: 100.0 mg/kg/injection, schedule: Q04DX002 (ip), vehicle: Klucel (hydroxypropylcellulose) (HPC)) was 97 % of control.

With `NC(C/C=C\Cl)C(=O)O` (stereo not given), the T/C (dose: 50.0 mg/kg/injection, schedule: Q01DX005 (ip), vehicle: Klucel (hydroxypropylcellulose) (HPC)) is 102 % of control; the T/C (dose: 100.0 mg/kg/injection, schedule: Q01DX005 (ip), vehicle: Klucel (hydroxypropylcellulose) (HPC)) is 98 % of control; the T/C (dose: 200.0 mg/kg/injection, schedule: Q01DX005 (ip), vehicle: Klucel (hydroxypropylcellulose) (HPC)) is 110 % of control.

Take `Cc1c2ccncc2c(CN(CCCl)CCCl)c2c3ccccc3n(C)c12`: the T/C is 150 % of control and 160 % of control (dose: 20.0 mg/kg/injection, schedule: Q01DX005 (ip), vehicle: saline); 118 % of control (dose: 50.0 mg/kg/injection, schedule: Q01DX005 (ip), vehicle: saline); 182 % of control (dose: 100.0 mg/kg/injection, schedule: Q01DX005 (ip), vehicle: saline).

Take `CC(=O)NC(/C=C/c1ccc(Cl)c(Cl)c1)c1cccc(O)c(=O)c1` (stereo not given): the T/C was 100 % of control (dose: 6.25 mg/kg/injection, schedule: Q01DX009 (ip), vehicle: saline with Tween-80); 99 % of control (dose: 12.5 mg/kg/injection, schedule: Q01DX009 (ip), vehicle: saline with Tween-80); 113 % of control under setting [4]; 119 % of control under setting [5]; 124 % of control under setting [6]; 98 % of control (dose: 100.0 mg/kg/injection, schedule: Q01DX009 (ip), vehicle: saline).

Take `C/C(N=NC(=S)N1CCCC1)=C1\C=CC=CN1O`: the T/C runs as follows: under setting [7], 106 % of control; under setting [8], 103 % of control; under setting [9], 112 % of control.

On to `CCc1c(Cc2[nH]c(C=O)c(C)c2CC)[nH]c(C=O)c1C`, for which the T/C under setting [7] was 100 % of control, the T/C under setting [8] is 100 % of control and the T/C under setting [9] is 100 % of control.

Take `COC(=O)c1ccccc1NC(Cc1ccccc1)=NC(C)(C)C`: the T/C under setting [1] was 86 % of control and the T/C under setting [2] is 99 % of control.

Take `Nc1nc2nc3c(nc2c(=O)[nH]1)C(=O)N(c1ccc(C(=O)O)cc1)C3`: the T/C (dose: 6.25 mg/kg/injection, schedule: Q04DX003 (ip), vehicle: saline with Tween-80) is 111 % of control; the T/C (dose: 12.5 mg/kg/injection, schedule: Q04DX003 (ip), vehicle: saline with Tween-80) was 98 % of control; the T/C (dose: 25.0 mg/kg/injection, schedule: Q04DX003 (ip), vehicle: saline with Tween-80) is 100 % of control and 103 % of control.

For the compound `O=C(O)CC1C(=O)OC2C3COC(=O)c4cc(O)c(O)c(O)c4-c4c(cc(O)c(O)c4O)C(=O)OC2C(OC(=O)c2cc(O)c(O)c4c2C1C(O)C(=O)O4)C(OC(=O)c1cc(O)c(O)c(O)c1)O3` (stereo not given), the T/C reads like this: (dose: 0.78 mg/kg/injection, schedule: Q01DX009 (ip), vehicle: saline) 99 % of control; (dose: 1.56 mg/kg/injection, schedule: Q01DX009 (ip), vehicle: saline) 102 % of control; (dose: 3.12 mg/kg/injection, schedule: Q01DX009 (ip), vehicle: saline) 98 % of control; (dose: 6.25 mg/kg/injection, schedule: Q01DX009 (ip), vehicle: saline) 100 % of control and 121 % of control; (dose: 12.5 mg/kg/injection, schedule: Q01DX009 (ip), vehicle: saline) 111 % of control and 93 % of control; under setting [5], 107 % of control and 97 % of control. Also, under setting [6], the T/C was 116 % of control and 97 % of control.

In the case of `CC1(C)N=C(N)N=C(N)N1c1ccc(OCCCCNC(=O)c2ccc(S(=O)(=O)F)cc2)c(Cl)c1`, the T/C by setting is: under setting [4], 150 % of control; under setting [5], 161 % of control; under setting [6], 159 % of control.

Regarding `CC(=O)OC1CC2(C)CCC3C(C)C(=O)OC3C2C(C)C1=O` (stereo not given), the T/C reads like this: under setting [10], 100 % of control; (dose: 200.0 mg/kg/injection, schedule: Q04DX002 (ip), vehicle: saline with Tween-80) 100 % of control; (dose: 400.0 mg/kg/injection, schedule: Q04DX002 (ip), vehicle: saline with Tween-80) 99 % of control and 100 % of control.

In the case of `N#Cc1ccccc1S(=O)(=O)O`, the T/C (dose: 100.0 mg/kg/injection, schedule: Q01DX001 (ip), vehicle: saline with Tween-80) is 96 % of control; the T/C (dose: 200.0 mg/kg/injection, schedule: Q01DX001 (ip), vehicle: saline with Tween-80) was 90 % of control; the T/C (dose: 400.0 mg/kg/injection, schedule: Q01DX001 (ip), vehicle: saline with Tween-80) is 102 % of control.

For the compound `CC[C@@H]1C[C@@H]2CN3CCc4c([nH]c5ccc(OC)c(Cc6ccc(OC)c(OC)c6)c45)C(C(=O)OC)(C2)C13`, the T/C runs as follows: (dose: 2.5 mg/kg/injection, schedule: Q01DX009 (ip), vehicle: Klucel (hydroxypropylcellulose) (HPC)) 88 % of control; (dose: 5.0 mg/kg/injection, schedule: Q01DX009 (ip), vehicle: Klucel (hydroxypropylcellulose) (HPC)) 103 % of control; (dose: 10.0 mg/kg/injection, schedule: Q01DX009 (ip), vehicle: Klucel (hydroxypropylcellulose) (HPC)) 92 % of control; (dose: 20.0 mg/kg/injection, schedule: Q01DX009 (ip), vehicle: Klucel (hydroxypropylcellulose) (HPC)) 95 % of control.

With `CC1(C)CC(OC(=S)S)CC(C)(C)N1O`, the T/C (dose: 100.0 mg/kg/injection, schedule: Q04DX002 (ip), vehicle: saline) was 100 % of control; the T/C (dose: 200.0 mg/kg/injection, schedule: Q04DX002 (ip), vehicle: saline) was 98 % of control; the T/C (dose: 400.0 mg/kg/injection, schedule: Q04DX002 (ip), vehicle: saline) was 100 % of control.

Consider `O=[N+]([O-])c1ccc(N2CCN(CCO)CC2)c2c1no[n+]2[O-]`, for which the T/C reads like this: (dose: 3.75 mg/kg/injection, schedule: Q01DX009 (ip), vehicle: saline) 98 % of control and 100 % of control and 86 % of control; (dose: 7.5 mg/kg/injection, schedule: Q01DX009 (ip), vehicle: saline) 100 % of control and 97 % of control; (dose: 15.0 mg/kg/injection, schedule: Q01DX009 (ip), vehicle: saline) 103 % of control (2×) and 90 % of control; (dose: 30.0 mg/kg/injection, schedule: Q01DX009 (ip), vehicle: saline) 100 % of control and 101 % of control and 95 % of control; (dose: 50.0 mg/kg/injection, schedule: Q01DX009 (ip), vehicle: suspension in saline) 109 % of control.

In the case of `Cc1cccc(NC(=O)Nc2cccc(S(N)(=O)=O)c2)c1C`, the T/C reads like this: under setting [1], 104 % of control; under setting [2], 90 % of control; under setting [3], 90 % of control.

Consider `CCOC(=O)C1CC(=O)SC1=O` (stereo not given), for which the T/C by setting is: (dose: 25.0 mg/kg/injection, schedule: Q04DX002 (ip), vehicle: saline with Tween-80) 101 % of control; (dose: 50.0 mg/kg/injection, schedule: Q04DX002 (ip), vehicle: saline with Tween-80) 100 % of control; under setting [10], 99 % of control.

Regarding `CC(=O)Nc1ccc(/C=C/c2ccc(N=C=S)cc2S(=O)(=O)O)c(S(=O)(=O)O)c1`, the T/C was 110 % of control under setting [1] and 110 % of control under setting [2].

As to `CCN(CC)CCCNc1c(O)cc(C)c2sc3ccccc3c(=O)c12`, the T/C was 94 % of control under setting [1], 94 % of control under setting [2] and 100 % of control under setting [3].

These data come from PubChem BioAssay AID330 (DTP/NCI, 2004).
